The target in one test is T1, rat TRPV1 (Rattus norvegicus, UniProt O35433).
T1 construct: expressed in transfected cells; host or cells: CHO, constitutive expression, co-transfected with aequorin
Description: Luminescence (aequorin) readout of intracellular calcium, CHO cells expressing rat TRPV1, capsaicin activation. Type of test: cell-based. The settings on record: 0.5 uM capsaicin, read-out: rTRPV1 IC50. From the text: (§1) Stable Chinese hamster ovary (CHO) cell lines expressing rat TRPA1, rat TRPM8, rat TRPV3, and human TRPV4 were generated using the tetracycline-inducible T-REx™ expression system from Invitrogen (Carlsbad, CA) and a stable CHO cell line expressing rat TRPV1 was generated using a constitutive expression system (Klionsky et al. [2007]). To enable a luminescence readout based on intracellular increase in calcium (Le Poul et al. [2002]), each cell line was also co-transfected with pcDNA3.1 plasmid containing jelly fish aequorin cDNA. Twenty-four hours before the assay, cells were seeded in 96-well plates and all TRP channel expression, except for TRPV1, was induced with 0.5 ug/mL tetracycline. […] Luminescence was measured by a CCD camera-based FLASH-luminometer built by Amgen, Inc. The following agonists were used to activate TRP channels: 0.5 uM capsaicin for TRPV1, 80 uM allyl isothiocyanate (AITC) for TRPA1, 1 uM icilin or cold buffer (12 °C) for TRPM8, 200 uM aminoethoxydiphenyl borate (2-APB) for TRPV3, and 1 uM 4α-phorbol 12,13-didecanoate (4α-PDD) for TRPV4. Antagonist IC50 values were calculated using GraphPad Prism 4.01 (GraphPad Software Inc, San Diego, CA).

Test [1] concerns TRPM8 on cutaneous nerve terminals (C fibers). Description: Skin-nerve preparation, menthol-evoked activation of C fibers. Set-up: species or system mouse. The settings on record: 10 μM; 300 μM menthol; n = 22; p = 0.005. From the text: Adult C57BL/6 mice were obtained from Jackson Laboratories and used for ex vivo skin-nerve preparations. Mice were allowed to acclimate to the animal facility at the Medical College of Wisconsin, an Association for the Assessment and Accreditation of Laboratory Animal […] (AALAC)-accredited facility, for approximately 1 week following shipment. Animals were housed with up to four other cagemates and had ad libitum access to food pellets and hyper-chlorinated water. Mice were housed on a 14:10 h light-dark cycle in cages containing aspen bedding and paper nesting material. Room temperatures averaged 21 °C. Prior to use, animals were briefly anesthetized with inhaled isoflurane and then sacrificed via cervical dislocation.
The mouse saphenous skin-nerve in vitro preparation (Koltzenburg et al. [1997]; Stucky et al. [1999]) was used for electrophysiological recordings of cutaneous terminals of primary afferent fibers in situ. […] Once a unit with a signal to noise ratio >2 was identified, the mechanical threshold was determined using calibrated von Frey filaments (range, 0.44–147.0 mN). […]
Wave forms of action potentials evoked by mechanical stimuli were saved on an oscilloscope for comparison of shape and profile. […] Action potentials were discriminated and counted off-line using a spike histogram software extension. […] All data was also analyzed in a blinded manner.

In the next test the target is T2, rat TRPV3 (Rattus norvegicus, UniProt Q4QYD9).
T2 construct: expressed in transfected cells; host or cells: CHO, T-REx tetracycline-inducible system (Invitrogen), co-transfected with aequorin
T2 sequence (Q4QYD9 1-791): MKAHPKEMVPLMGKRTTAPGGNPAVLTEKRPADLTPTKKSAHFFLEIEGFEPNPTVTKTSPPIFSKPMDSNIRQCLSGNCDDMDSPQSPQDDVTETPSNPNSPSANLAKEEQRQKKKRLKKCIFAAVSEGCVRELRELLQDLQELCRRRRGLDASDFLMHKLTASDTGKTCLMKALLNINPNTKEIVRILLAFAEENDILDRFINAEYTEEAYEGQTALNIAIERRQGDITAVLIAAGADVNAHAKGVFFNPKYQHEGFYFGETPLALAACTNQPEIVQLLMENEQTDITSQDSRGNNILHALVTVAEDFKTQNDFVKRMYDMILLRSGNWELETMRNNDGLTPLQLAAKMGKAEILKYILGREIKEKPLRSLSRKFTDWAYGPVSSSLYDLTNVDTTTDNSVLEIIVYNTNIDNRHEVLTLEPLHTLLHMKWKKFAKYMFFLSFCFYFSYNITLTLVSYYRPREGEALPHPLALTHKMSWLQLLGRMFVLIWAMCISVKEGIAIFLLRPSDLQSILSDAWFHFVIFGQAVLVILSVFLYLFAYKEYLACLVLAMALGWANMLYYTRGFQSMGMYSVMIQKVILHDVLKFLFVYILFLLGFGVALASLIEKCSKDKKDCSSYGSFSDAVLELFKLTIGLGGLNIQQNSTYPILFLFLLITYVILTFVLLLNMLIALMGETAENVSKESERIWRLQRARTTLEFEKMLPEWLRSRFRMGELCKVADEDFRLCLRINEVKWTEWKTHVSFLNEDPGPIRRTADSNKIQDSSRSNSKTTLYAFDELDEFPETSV
In words: Luminescence (aequorin) readout of intracellular calcium, CHO cells expressing rat TRPV3, 2-APB activation. The format is cell-based. To be noted: 200 uM 2-APB, read-out: rTRPV3 IC50.
From the text: as §1

Structures are written as SMILES.

T1 sequence (O35433 whole entry): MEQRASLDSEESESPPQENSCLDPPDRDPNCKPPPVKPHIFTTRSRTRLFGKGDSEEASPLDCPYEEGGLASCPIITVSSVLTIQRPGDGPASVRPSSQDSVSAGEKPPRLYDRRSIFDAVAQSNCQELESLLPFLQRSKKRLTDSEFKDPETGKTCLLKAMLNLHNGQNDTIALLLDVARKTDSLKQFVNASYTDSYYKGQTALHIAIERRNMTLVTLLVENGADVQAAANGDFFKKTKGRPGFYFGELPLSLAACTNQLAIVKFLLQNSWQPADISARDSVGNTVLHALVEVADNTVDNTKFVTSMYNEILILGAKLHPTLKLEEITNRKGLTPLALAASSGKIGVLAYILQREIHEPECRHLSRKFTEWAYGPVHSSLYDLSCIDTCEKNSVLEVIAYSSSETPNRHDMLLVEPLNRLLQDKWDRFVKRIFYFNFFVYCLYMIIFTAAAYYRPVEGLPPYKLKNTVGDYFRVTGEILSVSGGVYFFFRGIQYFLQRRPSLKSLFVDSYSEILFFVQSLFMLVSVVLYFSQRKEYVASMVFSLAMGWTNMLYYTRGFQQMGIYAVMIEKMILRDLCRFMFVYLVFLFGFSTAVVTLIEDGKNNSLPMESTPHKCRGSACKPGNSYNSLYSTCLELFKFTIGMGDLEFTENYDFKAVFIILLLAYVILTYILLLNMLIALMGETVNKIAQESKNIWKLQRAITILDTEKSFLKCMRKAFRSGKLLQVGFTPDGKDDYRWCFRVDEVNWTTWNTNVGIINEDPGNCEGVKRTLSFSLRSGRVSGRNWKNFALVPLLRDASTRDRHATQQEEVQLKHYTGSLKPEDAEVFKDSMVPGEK

Consider `C[C@H](NC(=O)N1CCc2cccnc2[C@H]1c1ccc(C(F)(F)F)cc1)C(F)(F)F` [AMG2850, (R)-8-(4-(trifluoromethyl)phenyl)-N-((S)-1,1,1-trifluoropropan-2-yl)-5,6-dihydro-1,7-naphthyridine-7(8H)-carboxamide], for which the IC50 on rat TRPV1 and at rat TRPV3 was more than 25 µM throughout. In addition, the “effect on menthol-evoked firing of C fibers” value in test [1] is reported as “completely inhibited all menthol-evoked firing”.

The record behind these values is paper PMC4359714 (Naunyn-Schmiedeberg's Archives of Pharmacology, 2015).
